# Laboratory results as given in patent publication US20100062437A1, “PARALLEL PROFILLING OF SIGNALING PATHWAYS” (priority 2007, published 2010).
# Key:
# DLD-1 cells = experiment: Degradation of long-lived proteins (proteolysis) in DLD-1 cells; type: cell-based, human; details: for effect on ouabain-induced increase in protein degradation: 20 mM NH4Cl and 100 μM leupeptine or 10 mM 3-methyladenine during the chase
# Source text: The Na^+/K^+-ATPase is the common target of ouabain, digoxin, and digitoxin (Buckalew, 2005). Na^+/K^+-ATPase inhibition induces a plethora of effects including (a) disruption of the Na^+/K^+ gradient and consequent increase in intracellular [Ca^2+] (Grapengiesser et al., 1993), (b) interference with amino acid uptake (Johnson et al., 1986), and (c) the production of reactive oxygen species resulting in oxidative damage to proteins and organelles (Xie et al., 1999). Each of these individual events is either sufficient or necessary to promote autophagy. The latter maintains cell viability by furnishing essential biochemical building blocks via degradation of existing proteins and organelles in lysosomes (Levine and Klionsky, 2004). However, the effect of ouabain, or its cardiotonic congeners, on autophagy has not been examined. The later was explored by measuring rates of degradation of long-lived proteins, the preferential substrate for lysosomal degradation, in DLD-1 cells. […] The latter implies that macroautophagy, the degradation of sequestered material in a vesicular-based fashion, along with other types of autophagy (i.e. chaperone-mediated autophagy and microautophagy) contribute to ouabain-induced proteolysis.
# Intracellular Protein Turnover. Rates of protein synthesis were measured in confluent cells as the incorporation of [3H]leucine [10 μCi/ml (1 Ci=37 GBq)] into acid-insoluble material in the presence of an excess (2.8 mM) of unlabeled leucine in the medium (to minimize differences due to alteration of amino acid transport and/or intracellular amino acid pool sizes). 28 To measure degradation of long-lived proteins, confluent cells were labeled with [3H]leucine (2 μCi/ml) for 48 h at 37° C. and then extensively washed and maintained in complete or amino acid depleted medium containing an excess of unlabeled leucine. Aliquots of the medium taken at different times were precipitated with trichloroacetic acid, and proteolysis was calculated as the amount of acid precipitable radioactivity converted into acid soluble at each time (Auteri et al., 1983). Where indicated, 20 mM NH4Cl and 100 μM leupeptine or 10 mM 3-methyladenine were added during the chase to block lysosomal proteolysis or macroautophagy, respectively.
# hSMG1 mRNA [1] = experiment: Drug library screen, hSMG1 mRNA quantitation by branched DNA assay in HeLa cells; type: cell-based, human
# Method: HeLa cells were separately exposed to each drug from the drug library in a multiwell plate format. After 24 h, hSMG mRNA was captured and quantified using a branched DNA assay (Collins et al., 1997). Actin mRNA levels were simultaneously measured from the same cell lysate in order to compensate for differences in viable cell number as a consequence of drug treatment. […] Both agents bind to and inhibit the Na^+/K^+-ATPase (Therien and Blostein, 2000).
# Drug Library Screen and hSMG1 message quantitation. The QuantiGene® Explore kit (Panomics, Inc.) was used to furnish a direct quantitation of mRNA in a 96 well format. The “housekeeper gene” […] was selected as an intracellular control. Specific oligonucleotide probes for hSMG1, including capture extenders (CE), label extenders (LE) and blocking probes (BL) were designed with the Panomics ProbeDesigner™ software and synthesized. Prior to drug exposure, HeLa cells were incubated for 24 hr in 150 μL Dulbecco's modified Eagle Medium (DMEM) with 10% fetal bovine serum (FBS) and DLD-1 cells were incubated for 24 hr in 150 μL MEM with 1 mM MEM nonessential amino acids, 1 mM sodium pyrurate, 0.15% sodium bicarbonate, and 10% FBS. Cells were then exposed to various concentrations of the drugs for 24 hr and then lysed via incubation in 75 μL lysis buffer (QuantiGene® Explore kit) at 53° C. for 1 hr. Capture of hSMG1 and actin mRNA was conducted according to the manufacturers instructions and quantification performed using a microplate luminometer.
# hSMG1 mRNA [2] = experiment: hSMG1 mRNA quantitation (branched DNA assay) in DLD-1 cells exposed to ouabain; type: cell-based, human
# Method: The QuantiGene® Explore kit (Panomics, Inc.) was used to furnish a direct quantitation of mRNA in a 96 well format. The “housekeeper gene” 13-actin was selected as an intracellular control. Specific oligonucleotide probes for hSMG1, including capture extenders (CE), label extenders (LE) and blocking probes (BL) were designed with the Panomics ProbeDesigner™ software and synthesized. Prior to drug exposure, HeLa cells were incubated for 24 hr in 150 μL Dulbecco's modified Eagle Medium (DMEM) with 10% fetal bovine serum (FBS) and DLD-1 cells were incubated for 24 hr in 150 μL MEM with 1 mM MEM nonessential amino acids, 1 mM sodium pyrurate, 0.15% sodium bicarbonate, and 10% FBS. Cells were then exposed to various concentrations of the drugs for 24 hr and then lysed via incubation in 75 μL lysis buffer (QuantiGene® Explore kit) at 53° C. for 1 hr. Capture of hSMG1 and actin mRNA was conducted according to the manufacturers instructions and quantification performed using a microplate luminometer.
# hSMG1 mRNA [3] = experiment: hSMG1 over-expression response to ouabain in other cell lines; type: cell-based
# ATR = ATR mRNA quantity in DLD-1 cells in response to ouabain; type: cell-based, human
# Source text: (§1) hSMG1 is a member of the PIKK family, which also includes ATM, ATR, mTOR, and DNA-PK (Therien and Blostein, 2000). These large, structurally homologous, proteins have been implicated as participants in the cellular response to various forms of stress.
# ATM = ATM mRNA quantity in DLD-1 cells in response to ouabain; type: cell-based, human
# Source text: as §1
# DNAPK = DNAPK mRNA quantity in DLD-1 cells in response to ouabain; type: cell-based, human
# Source text: as §1
# mTOR = mTOR mRNA quantity in DLD-1 cells in response to ouabain; type: cell-based, human
# Source text: as §1
# [4] = test system: hSMG1 transcription sites; experiment: Fluorescence in situ hybridization (FISH) of active hSMG1 transcription sites in DLD-1 cells; type: cell-based, human; details: ouabain 10 μM for 1 hr, untreated 0.19
# Source text: The branched chain DNA assay affords an averaged expression response from a cell population. The magnitude of this response is a function of actin mRNA levels, a baseline that furnishes relative, but not absolute, hSMG1 mRNA quantity. Since actin mRNA levels may be susceptible to influence by these drugs as well, fluorescence in situ hybridization was employed to directly visualize hSMG1 mRNA transcription sites in the DLD-1 cell line. […] Furthermore, these enhanced levels of mRNA synthesis rate and quantity directly translate into higher proteins levels, as exemplified by the ouabain-induced 2.7-fold increase in hSMG1 protein in DLD-1 cells (FIG. 2).
# Fluorescence in situ hybridization (FISH). Previously described oligomer probes, each 50 bases in length from four regions of the hSMG1 gene, were designed with OLIGO software from Molecular Biology Insights, Inc., and synthesized on an Applied Biosystems automated DNA/RNA synthesizer (Capodieci et al., 2005). The activated fluorophore cy3 (Amersham) was used to label the probes. DLD-1 cells were seeded onto gelatinized coverslips, incubated as described above for 24 hr, and then treated with ouabain (10 μm) for 1 hr. […] The FISH specimens were imaged and analyzed as previously described (Capodieci et al., 2005).
# hSMG1 protein = hSMG1 protein quantitation by Western blot in DLD-1 cells; type: cell-based, human; details: 10 μM ouabain for 24 hr
# Method: hSMG1 Protein Quantitation. DLD-1 cells were exposed to 10 μM ouabain for 24 hr and subsequently lysed. Total protein concentration, following centrifugation, was determined using the BCA Protein Assay Kit (Pierce). Following electrophoresis, the membrane was divided and the individual halves separately exposed to the SMG1 antibody BL1657 (Bethyl Laboratories) and the actin antibody A5441 (Sigma) and then subsequently incubated with the appropriate horseradish peroxidase conjugated secondary antibodies. The membranes were treated with the Pierce Supersignal West Pico chemiluminescent reagent and quantified.
# HEK293 cells = experiment: Rate of proteolysis in HEK293 cells after hSMG1 RNAi knockdown; type: cell-based, human; details: RNAi knockdown of hSMG1, lysosomal inhibitor added
# Source text: Autophagy is the quintessential cellular response to limited nutrient supplies and/or the presence of damaged cytoplasmic components (Levine and Yuan, 2005). The corresponding ouabain-induced overexpression of hSMG1 may be a biochemical mechanism by which metabolic homeostasis is re-established, either by inhibiting or promoting autophagy. The possible influence of hSMG1 on autophagy was examined via a series of RNAi knockdown experiments. […] Consequently, all knockdown experiments were performed using the 293 cell line. Following RNAi knockdown, cells were either exposed to or deprived of amino acids and the effect on the rate of proteolysis noted. […] Protein degradation is enhanced in RNAi knockdown cells versus their unaltered counterparts (FIG. 3a). […]
# Intracellular Protein Turnover. Rates of protein synthesis were measured in confluent cells as the incorporation of [3H]leucine [10 μCi/ml (1 Ci=37 GBq)] into acid-insoluble material in the presence of an excess (2.8 mM) of unlabeled leucine in the medium (to minimize differences due to alteration of amino acid transport and/or intracellular amino acid pool sizes). […] Aliquots of the medium taken at different times were precipitated with trichloroacetic acid, and proteolysis was calculated as the amount of acid precipitable radioactivity converted into acid soluble at each time (Auteri et al., 1983). […]
structure (smiles),measurement,setting,value
Cn1cnc(N)c2ncnc1-2 [3-methyladenine],lysosomal degradation sensitive to 3-methyladenine,"DLD-1 cells; ouabain treated, 10 mM 3-methyladenine",30.5±3.4%
same,effect on ouabain-induced increase in protein degradation,DLD-1 cells; ouabain treated,partially offsets the effect of ouabain
"C[C@@H]1O[C@@H](O[C@H]2C[C@@H](O)[C@]3(CO)[C@H]4[C@H](O)C[C@]5(C)[C@@H](C6=CC(=O)OC6)CC[C@]5(O)[C@@H]4CC[C@]3(O)C2)[C@H](O)[C@H](O)[C@H]1O [Ouabain, ouabain]",enhancement of hSMG1 expression levels,hSMG1 mRNA [1],2 fold
same,hSMG1 over-expression response,"hSMG1 mRNA [2]; DLD-1 adenocarcinoma, ouabain 10 μM",4.3±0.1 fold
same,enhancement in hSMG1 mRNA quantity,hSMG1 mRNA [2]; DLD-1 cells in response to ouabain,4.3±0.1
same,hSMG1 Expression relative to untreated cells,"hSMG1 mRNA [2]; DLD-1 cells, ouabain 10 μM alone, mean ± S.D. of three wells",4.3 ± 0.1
same,hSMG1 over-expression response,"hSMG1 mRNA [3]; 786-0 renal carcinoma, ouabain 10 μM",6.1±0.4 fold
same,hSMG1 over-expression response,"hSMG1 mRNA [3]; GM02037 wild type fibroblast, ouabain 10 μM",3.4±0.1 fold
same,hSMG1 over-expression response,"hSMG1 mRNA [3]; HEK 293, ouabain 10 μM",3.3±0.2 fold
same,hSMG1 over-expression response,"hSMG1 mRNA [3]; PC3 prostate carcinoma, ouabain 10 μM",2.7±0.2 fold
same,hSMG1 over-expression response,"hSMG1 mRNA [3]; U87 glioblastoma, ouabain 10 μM",1.4±0.1 fold
same,hSMG1 over-expression response,"hSMG1 mRNA [3]; primary astrocyte, ouabain 10 μM",5.4±0.1 fold
same,change in ATR mRNA quantity,ATR,0.7±0.1 fold
same,change in ATM mRNA quantity,ATM,1.1±0.1 fold
same,change in DNAPK mRNA quantity,DNAPK,0.8±0.1 fold
same,change in mTOR mRNA quantity,mTOR,1.3±0.1 fold
same,fraction of cells displaying active hSMG1 transcription sites,[4],0.63±0.1
same,increase in hSMG1 protein,hSMG1 protein,2.7 fold
same,effect on proteolysis (degradation of long-lived proteins),"DLD-1 cells; ouabain 10 μM, compared with amino acid starvation",dramatically enhances proteolysis
Cl.N [ammonium chloride],effect on ouabain-induced increase in protein degradation,DLD-1 cells; ouabain treated,completely blocked
same,effect on protein degradation caused by hSMG1 knockdown,HEK293 cells,only partly mitigates the effect of hSMG1 knockdown on protein degradation
CC(=O)N[C@@H](CC(C)C)C(=O)N[C@@H](CC(C)C)C(=O)N[C@H](C=O)CCCNC(=N)N [leupeptin],effect on ouabain-induced increase in protein degradation,DLD-1 cells; ouabain treated,completely blocked
